Source: article PMC4148174 (Biochemical Journal, 2014)
Like-named read-outs stand apart in the source and are kept apart here.

How the values were obtained:
ATP synthase = test system: T1, ATP synthase; assay: Succinate-driven ATP synthesis by SMPs; type: biochemical, bovine; conditions: 15 mM buformin, 100 mM metformin; others up to concentrations above IC50 for ATP hydrolysis; corrected for succinate oxidation
T1 construct: from tissue; host or cells: SMPs from bovine heart mitochondria
Description: Data points are means±S.E.M., n=3, as a percentage of ATP production in the absence of biguanide. […] (●).

[1] = test system: T2, isolated F1 domain of ATPase; assay: ATP hydrolysis by the isolated F1 domain; type: biochemical, bovine; conditions: at the SMP IC50 values
T2 construct: from tissue; host or cells: bovine mitochondria
Description: Complex I was prepared from Bos taurus (bovine) heart mitochondria, Pichia pastoris and Escherichia coli, as described previously. SMPs (submitochondrial particles) and mitochondrial membranes were prepared from bovine heart mitochondria. […] Mitochondria were isolated from rat liver by the method of Chappell and Hansford. F1FO-ATP synthase and the F1 domain were isolated from bovine mitochondria as described previously using a HiLoad Superdex 200-PG column and omitting azide and 2-mercaptoethanol.

complex III = assay: Complex III inhibition (succinate:cytochrome c oxidoreduction); conditions: read-out: IC50 on complex III
[2] = test system: Hep G2 hepatocarcinoma cells; assay: Rotenone-sensitive OCR and ECAR of Hep G2 cells (Seahorse); type: cell-based, human; conditions: for effect on rotenone-sensitive OCR or ECAR: concentration equal to complex I IC50/10, 6 h of treatment; for IC50: Hep G2 cells, 6 h exposure, read-out: cellular IC50, rotenone-sensitive OCR
Description: OCRs (oxygen consumption rates) and ECARs (extracellular acidification rates) were measured in a Seahorse extracellular flux analyser; 200 nM rotenone was used to inhibit complex I where stated. To calculate the normalized rotenone-sensitive OCR rates, the rotenone-insensitive rates (determined at the end of the experiment) were subtracted and the traces normalized to 100% before biguanide addition. ECAR data were normalized to 100% before biguanide addition. […] Isolated rat liver mitochondria were plated at 20 μg per well in the same buffer but without PMP. They were adhered to the plate by centrifugation at 2000 g for 20 min at 4°C and measurements performed and normalized (after temperature equilibration) as for permeabilized cells but at 32°C.
(§1) Biguanides are positively charged so they are expected to accumulate in the mitochondria of cells in response to the potential difference across the inner membrane (the potential difference is the ‘charge’ component of the protonmotive force). Each 60 mV of potential difference drives the concentration of the positive ion to 10-times higher inside the mitochondrion than outside. For a typical potential difference of 120–150 mV the concentration inside the mitochondrion could therefore be 100 to 300-times higher than outside. […] The OCRs were normalized to their values before biguanide addition, and monitored throughout the experiment; rotenone-insensitive rates were subtracted, and all rates after 6 h compared with a biguanide-free control.

complex I flavin = test system: T3, complex I flavin; assay: H2O2 production (NADH:O2 oxidoreduction) by isolated complex I; type: biochemical, bovine; conditions: dose-response
T3 construct: from tissue; host or cells: bovine heart mitochondria (from context)
Description: (§2) NADH:decylubiquinone oxidoreduction was measured using 200 μM NADH and 200 μM decylubiquinone, in 0.075% soya bean asolectin (Avanti Polar Lipids) and 0.075% CHAPS (Merck Chemicals) and quantified by the absorbance of NADH (ε340–380=4.81 mM^−1·cm^−1). Catalysis was initiated by the addition of NADH, following a 2 min pre-incubation, and rates measured as the linear regression of the maximal rate (discarding any initial lag phases). […] Initial rates for the NADH:FeCN (ferricyanide), NADH:HAR [hexaammineruthenium(III)] and NADH:paraquat reactions were measured in 100 μM NADH with 1 mM FeCN (ε420–500=1 mM^−1·cm^−1), 3.5 mM HAR or 200 μM paraquat (ε340–380=4.81 mM^−1·cm^−1). H2O2 formation was followed in 30 μM NADH as the catalase-sensitive horseradish peroxidase-dependent oxidation of 10 μM Amplex Red to resorufin (ε557–620=51.6 mM^−1·cm^−1), with 2 units/ml superoxide dismutase, or by monitoring NADH oxidation. Metformin (Cambridge Bioscience) phenformin and buformin (Santa Cruz Biotechnology) were added from aqueous stock solutions, and cycloguanil (Santa Cruz Biotechnology) and proguanil (Sigma–Aldrich) were in DMSO. Control experiments included NaCl (to maintain the ionic strength) or DMSO.

[3] = target: T4, complex I (NADH:ubiquinone oxidoreductase); assay: NADH:decylubiquinone oxidoreduction by isolated complex I; type: biochemical, Bos taurus (bovine); conditions: for IC50: isolated bovine complex I, 32°C, pH 7.2, 200 μM NADH, 200 μM decylubiquinone, 95% confidence intervals; for inhibition of complex I catalysis at extrapolated mitochondrial concentration: 10 mM metformin, 200 μM phenformin in mitochondria
T4 construct: from tissue; host or cells: bovine heart mitochondria
Description: Catalysis was initiated by the addition of NADH, following a 2 min pre-incubation, and rates measured as the linear regression of the maximal rate (discarding any initial lag phases). […] Control experiments included NaCl (to maintain the ionic strength) or DMSO.
Experimental values are reported as means±S.E.M. for small sample sizes or as means±S.D. for large sample sizes with only technical error sources. […] Comparisons between samples are marked *P<0.05, **P<0.01 and ****P<0.0001 as determined using an unpaired two-tailed Students t test. Differences between measurements with P>0.05 were considered not significant.

complex I [4] = assay: NADH:FeCN oxidoreduction by complex I from P. pastoris; type: biochemical, Pichia pastoris; conditions: 200 mM metformin
Description: as §2

complex I [5] = assay: NADH:FeCN oxidoreduction by complex I from E. coli; type: biochemical, Escherichia coli; conditions: 200 mM metformin
Description: as §2

complex I [6] = assay: NADH:decylubiquinone oxidoreduction by isolated complex I from bacterium; type: biochemical, Escherichia coli; conditions: read-out: IC50, inhibition of complex I; complex I from the bacterium E. coli
Description: (§3) Complex I was prepared from Bos taurus (bovine) heart mitochondria, Pichia pastoris and Escherichia coli, as described previously. SMPs (submitochondrial particles) and mitochondrial membranes were prepared from bovine heart mitochondria. Complex IV was a by-product from the preparation of complex I; it elutes from the Q-Sepharose column at ~250 mM NaCl. Mitochondria were isolated from rat liver by the method of Chappell and Hansford. F1FO-ATP synthase and the F1 domain were isolated from bovine mitochondria as described previously using a HiLoad Superdex 200-PG column and omitting azide and 2-mercaptoethanol.
(§4) NADH:decylubiquinone oxidoreduction was measured using 200 μM NADH and 200 μM decylubiquinone, in 0.075% soya bean asolectin (Avanti Polar Lipids) and 0.075% CHAPS (Merck Chemicals) and quantified by the absorbance of NADH (ε340–380=4.81 mM^−1·cm^−1). Catalysis was initiated by the addition of NADH, following a 2 min pre-incubation, and rates measured as the linear regression of the maximal rate (discarding any initial lag phases). […] Initial rates for the NADH:FeCN (ferricyanide), NADH:HAR [hexaammineruthenium(III)] and NADH:paraquat reactions were measured in 100 μM NADH with 1 mM FeCN (ε420–500=1 mM^−1·cm^−1), 3.5 mM HAR or 200 μM paraquat (ε340–380=4.81 mM^−1·cm^−1). […]

[7] = test system: isolated rat skeletal muscle mitochondria; assay: H2O2 production by isolated rat skeletal muscle mitochondria (resorufin fluorescence); conditions: glutamate and pyruvate, ATP and rotenone
Description: . However, these extramitochondrial concentrations are very high and we are unable to control the intramitochondrial concentration or conditions, so the results are not quantitatively meaningful. […]

[8] = test system: immunoprecipitated complex I; set-up: method as in PMID 18817800; conditions: previous data; cited from earlier work
[9] = set-up: method as in PMID 12889529; conditions: cited from earlier work
complex I flavin site = test system: T5, complex I flavin site; assay: NADH-dependence of NADH:FeCN catalysis by isolated bovine complex I; type: biochemical; conditions: 100 mM metformin
T5 construct: from tissue; host or cells: bovine heart mitochondria

complex I in SMPs = test system: T6, complex I in SMPs; assay: NADH oxidation by SMPs; type: biochemical, bovine; conditions: 100 mM metformin added 10 min after initiation by 200 μM NADH
T6 construct: from tissue; host or cells: SMPs from bovine heart mitochondria

complex I [10] = assay: NADH:decylubiquinone oxidoreduction by isolated complex I from yeast; type: biochemical, Pichia pastoris; conditions: complex I from the yeast P. pastoris; read-out: IC50, inhibition of complex I
Description: as §3, §4

[11] = Typical blood serum levels; type: in vivo; conditions: 1000-fold accumulation at combined membrane potentials of 180 mV
143B osteosarcoma cells = assay: Rotenone-sensitive OCR of 143B cells (Seahorse); type: cell-based, human; conditions: 6 h exposure, read-out: cellular IC50, rotenone-sensitive OCR
Description: Cells [143B (cell line 8303 from the A.T.C.C.) and Hep G2 (cell line 85011430 from The Health Protection Agency)] were grown on DMEM (Dulbecco's modified Eagle's medium) supplemented with 10% FBS (Thermo Fisher Scientific) and 100 units/ml penicillin and 100 μg/ml streptomycin at 37°C in 5% CO2. Per well, 3×10^4 or 1.5×10^4 cells were plated into XF24 or XF96 (Seahorse Bioscience) plates respectively, and incubated for 12 h at 37°C in 5% CO2. The medium was exchanged for assay buffer containing DMEM, 4.5 g/l glucose, 1 mM pyruvate, 32 mM NaCl, 2 mM GlutaMAX, 15 mg/l Phenol Red and 20 mM Hepes (pH 7.4) and the cells placed in a CO2-free incubator at 37°C for 60 min. OCRs (oxygen consumption rates) and ECARs (extracellular acidification rates) were measured in a Seahorse extracellular flux analyser; 200 nM rotenone was used to inhibit complex I where stated. To calculate the normalized rotenone-sensitive OCR rates, the rotenone-insensitive rates (determined at the end of the experiment) were subtracted and the traces normalized to 100% before biguanide addition. ECAR data were normalized to 100% before biguanide addition. For the permeabilized cell experiments, cells were seeded at 3.5×10^3 per well and incubated for 62 h at 37°C in 5% CO2. The medium was exchanged for assay buffer containing 3 nM plasma membrane permeabilizer ‘PMP’ (Seahorse Biosciences), 10 mM pyruvate, 10 mM malate, 220 mM mannitol, 70 mM sucrose, 10 mM KH2PO4, 5 mM MgCl, 1 mM EGTA, 0.2% fatty-acid-free BSA and 2 mM Hepes (pH 7.4) at 37°C. Cells were incubated for 15 min and a baseline was recorded for normalization, then the test compounds were added. […]
Biguanides are positively charged so they are expected to accumulate in the mitochondria of cells in response to the potential difference across the inner membrane (the potential difference is the ‘charge’ component of the protonmotive force). […] The OCRs were normalized to their values before biguanide addition, and monitored throughout the experiment; rotenone-insensitive rates were subtracted, and all rates after 6 h compared with a biguanide-free control. […]

143B and Hep G2 cells = assay: Accumulation into mitochondria of cultured cells inferred from complex I inhibition; type: cell-based, human; conditions: 6 h
Description: as §1, with “control. […]. […] […].” for “control.”

[12] = target: T7, isolated ATPase (F1FO-ATP synthase); assay: ATP hydrolysis by isolated intact ATPase; type: biochemical, bovine; conditions: isolated intact enzyme
T7 construct: from tissue; host or cells: bovine mitochondria
Description: as §3

F1FO-ATPase = target: T8, F1FO-ATPase; assay: ATP hydrolysis by F1FO-ATPase in SMPs (coupled assay); type: biochemical; conditions: bovine SMPs
T8 construct: from tissue; host or cells: SMPs from bovine heart mitochondria

Compound | effect on succinate-driven ATP synthesis (ATP synthase) | inhibition of ATP hydrolysis by the isolated F1 domain [1] | effect on rotenone-sensitive OCR or ECAR [2] | H2O2 production rate maximum (complex I flavin) | IC50 [3] | serum concentration [9] | inhibition of complex I catalysis at extrapolated mitochondrial concentration [3] | mitochondrial concentration extrapolated from serum [11] | IC50 (143B osteosarcoma cells; Homo sapiens, 143B, 6 h) | also measured
CCCCNC(=N)NC(=N)N [buformin] | No inhibition | 74±3% |  |  |  |  |  |  |  | 
CC1(C)N=C(N)N=C(N)N1c1ccc(Cl)cc1 [cycloguanil] | neither cycloguanil or proguanil affect ATP synthesis | no significant inhibition | neither proguanil nor cycloguanil exhibited any substantial effect |  |  |  |  |  |  | IC50 (complex III): 2480 ± 210 µM
N=C(N)N [guanidinium] |  |  |  | 386±34% | 25800 ± 3900 µM |  |  |  |  | 
CN(C)C(=N)N=C(N)N [metformin] | No inhibition |  |  | 338±41% | 19400 ± 1400 µM | ~ 10 μM | ~ 25% | 10 mM | 237 ± 13 µM | NADH:FeCN reaction rate (stimulation) (complex I [4]): 166±1%; NADH:FeCN reaction rate (stimulation) (complex I [5]): 144±2%; IC50 (complex I [6]): 60700 ± 8500 µM; stimulation of H2O2 production rate ([7]; 50 mM metformin): 270±34%; stimulation of H2O2 production rate ([7]; 100 mM metformin): 360±35%; IC50 [8]: 66000 µM; increase of the dissociation constant for NADH to the reduced flavin (complex I flavin site): ~ 20 times; KNADHRed (dissociation constant for NADH binding to the reduced flavin) (complex I flavin site; control 11 μM, data fit): 181 µM; IC50 [2]: 330 ± 20 µM; IC50 ([2]; Homo sapiens, HepG2, 6 h): 325 ± 25 µM; time for inhibition to attain the same level when added during catalysis (complex I in SMPs): more than 30 min; IC50 (complex I [10]): 22600 ± 4300 µM; mode of inhibition of complex I ([3]; Michaelis-Menten analysis towards decylubiquinone): reversible non-competitive inhibitor; IC50 (143B osteosarcoma cells): 240 ± 10 µM
[H]/N=C(/N)N/C(=N/[H])NCCc1ccccc1 [phenformin] | inhibition of synthesis is observed at higher concentrations | 32±7.5% |  |  |  | ~ 200 nM | ~ 25% | 0.2 mM | 3.81 ± 1.12 µM | accumulation (isolated complex I IC50 versus cellular IC50) (143B and Hep G2 cells): 120 fold; IC50 ([2]; Homo sapiens, HepG2): 3.8 ± 0.38 µM; time for uptake to reach completion ([2]; concentration equal to complex I IC50/10 (0.04 mM phenformin)): approximately 6 h
[H]/N=C(\N/C(=N/[H])Nc1ccc(Cl)cc1)NC(C)C [proguanil] | neither cycloguanil or proguanil affect ATP synthesis | no significant inhibition | neither proguanil nor cycloguanil exhibited any substantial effect |  |  |  |  |  |  | IC50 [12]: 0.67 ± 0.1 µM; IC50 (F1FO-ATPase): 6.8 ± 0.7 µM
